Test results: patent US9737616B2, “Compounds and methods for the treatment of ERB B2/NEU positive diseases” (Bio-Thera Solutions, Ltd., Co., priority 2012, dated 2017)

What was measured:
tubulin = experiment: HTS-Tubulin Polymerization Assay Kit, tubulin polymerization in vitro; format: biochemical; details: for inhibition of tubulin polymerization compared with the PBS buffer: Example 6, 1 μM stock of test substance, 4 mg/mL tubulin, 37° C., 405 nm
Protocol: The effect of 3AA-MDC, 206-3AA-MDC and the metabolites (Cys-3AA-MDC and Lys-mcc-MDC) of prodrug antibody maytansinoid conjugates on the tubulin polymerization in vitro was assessed by HTS-Tubulin Polymerization Assay Kit (BK004P, Cytoskeleton, Inc., USA). According to the instruction of kit, pre-warm the 96-well plate to 37° C. for 30 min prior to starting the assay. At the same time, the spectrophotometer (SpectraMax, Molecular Devices, USA) was set as follow: wavelength, 405 nm; temperature, 37° C.; Kinetic, 31 cycles of 1 reading per minute. Make cold G-PEM buffer (990 μL General Tubulin Buffer+10 μL GTP Stock) and keep it on ice. Prepare 4 mg/mL tubulin, 1 μM L-3AA-MDC (N2′-deacetyl-N2′-(6-maleimido-1-oxo-hexyl)maytansine), 1 μM 206-3AA-MDC, 1 μM cys-3AA-MDC, 1 μM lys-mcc-MDC, 100 μM Paclitaxel, and 100 μM Nocodazole. Add 10 μL G-PEM, 3AA-MDC, 206-3AA-MDC, cys-3AA-MDC, lys-mcc-MDC, Paclitaxel, Nocodazole into the wells, and then add 100 μL 4 mg/ml tubulin to each well. Immediately place the plate into the spectrophotometer and start recording using the kinetic setup described above. […] Nocodazole, the tubulin polymerization inhibitor, was set as a negative control. The metabolite Cys-3AA-MDC was prepared by reaction of 3AA-MDC with cysteine under the base DIEA in CH2Cl2. […] The metabolite Lys-MCC-MDC was prepared by reaction of SMCC-MDC with lysine under the base DIEA in DMF.
The effect of 3AA-MDC and related metabolites on the tubulin polymerization in vitro was assessed by HTS-Tubulin Polymerization Assay Kit (BK004P, Cytoskeleton, Inc., USA). According to the instruction of kit, pre-warm the 96-well plate to 37° C. for 30 min prior to starting the assay. At the same time, the spectrophotometer (SpectraMax, Molecular Devices, USA) was set as follow: wavelength, 405 nm; temperature, 37° C.; Kinetic, 31 cycles of 1 reading per minute. Make cold G-PEM buffer (990 μL General Tubulin Buffer+10 μL GTP Stock) and keep it on ice. Prepare 4 mg/ml tubulin, 200 nM L-3AA-MDC (N2′-deacetyl-N2′-(6-maleimido-1-oxo-hexyl)maytansine), or related compounds cys-3AA-MDC, or lys-mcc-MDC, 100 μM Paclitaxel, 100 μM Nocodazole, and 1 μM 206-3AA-MDC (3AA-MDC-antibody). Add 10 μL G-PEM, 3AA-MDC, Paclitaxel, Nocodazole and 206-3AA-MDC or related metabolites into the wells, and then add 100 μL 4 mg/ml tubulin to each well. Immediately place the plate into the spectrophotometer and start recording using the kinetic setup described above.

[1] = tested on: human acute lymphoblastic leukemia line C.E.M.; details: Wolpert-DeFillippes et al. 1975; cited from earlier work

## COc1cc2cc(c1Cl)N(C)C(=O)C[C@H](OC(=O)[C@H](C)N(C)C(=O)CCCCCN1C(=O)C=CC1=O)[C@]1(C)OC1[C@H](C)[C@@H]1C[C@@](O)(NC(=O)O1)[C@H](OC)/C=C/C=C(\C)C2 (stereo partly drawn) [3AA-MDC, N2′-deacetyl-N2′-(6-maleimido-1-oxo-hexyl)-maytansine]
tubulin
  inhibition of tubulin polymerization compared with the PBS buffer: more significantly inhibited
tubulin; Example 7, 200 nM stock, FIG. 1
  inhibition of tubulin polymerization: more significantly inhibited

## COc1cc2cc(c1Cl)N(C)C(=O)C[C@H](OC(=O)[C@H](C)N(C)C(=O)CCSC1CC(=O)N(CC3CCC(C(=O)NCCCC[C@H](N)C(=O)O)CC3)C1=O)[C@]1(C)O[C@H]1[C@H](C)[C@@H]1C[C@@](O)(NC(=O)O1)[C@H](OC)/C=C/C=C(\C)C2 (stereo partly drawn) [Lys-mcc-MDC]
tubulin
  inhibition of tubulin polymerization compared with the PBS buffer: more significantly inhibited

## COc1cc2cc(c1Cl)N(C)C(=O)C[C@H](OC(=O)[C@H](C)N(C)C(C)=O)[C@]1(C)O[C@H]1[C@H](C)[C@@H]1C[C@@](O)(NC(=O)O1)[C@H](OC)/C=C/C=C(\C)C2 [Maytansine]
[1]
  inhibitory concentration, as low as: 10^−7 µg/mL

## COC(=O)Nc1nc2ccc(C(=O)c3cccs3)cc2[nH]1 [Nocodazole]
tubulin; Example 7, 100 μM stock
  relative activity of tubulin polymerization, decreased: 2.5 fold

## CC(=O)O[C@H]1C(=O)[C@@]2(C)[C@H]([C@H](OC(=O)c3ccccc3)[C@]3(O)C[C@H](OC(=O)[C@H](O)[C@@H](NC(=O)c4ccccc4)c4ccccc4)C(C)=C1C3(C)C)[C@]1(OC(C)=O)CO[C@@H]1C[C@@H]2O [Paclitaxel]
tubulin; Example 7, 100 μM stock
  relative activity of tubulin polymerization, enhanced: about 3 fold
